In data set [1] the test system is Hepatitis C virus. Put plainly: Antiviral activity against Hepatitis C virus infected in human Huh7/Rep-Feo cells assessed as inhibition of viral replication after 72 hrs by luciferase assay. The data set is classed as functional, organism-based, Hepacivirus hominis. Particulars: Huh-7, 72 h.
Data set [2] in a line: Cytotoxicity against human HuH7 cells expressing chimeric gene encoding firefly luciferase and neomycin phosphotransferase assessed as cell proliferation after 72 hrs by MTT assay. The data set is classed as cell-based, Huh-7. For orientation: Tetrazolium assays rely on reduction of a dye to a coloured formazan, in cell work by metabolically active cells.
Data set [3] is described as follows: Cytotoxicity against human HuH7 cells expressing chimeric gene encoding firefly luciferase and neomycin phosphotransferase assessed as cell viability after 72 hrs by cell titer-glo luminescent assay. The data set is classed as cell-based, Huh-7. Background: ATP-based viability assays read luminescence as a measure of living cells.
Data set [4] can be described thus: Inhibition of HCV recombinant N-terminal histidine-tagged NS3/4A protease expressed Escherichia coli using Mca-Asp-Asp-Ile-Val-Pro-Cys-Ser-Met-Lys(Dnp)-Arg-Arg as fluorogenic substrate after 30 mins by FRET assay. Details: species or system Hepacivirus hominis.
Data set [5] has as its system Hepacivirus hominis. The data set is described as follows: Ratio of EC50 for HCV to IC50 for HCV recombinant N-terminal histidine-tagged NS3/4A protease.
The nature of data set [6]: Selectivity index, ratio of CC50 for human HuH7 cells expressing chimeric gene encoding firefly luciferase and neomycin phosphotransferase by cell titer-glo luminescent cell viability assay to EC50 for HCV. Details: species or system Huh-7.
The subject of data set [7] is Hepacivirus hominis. Put plainly: Inhibition of HCV recombinant N-terminal histidine-tagged NS3/4A protease expressed Escherichia coli using Mca-Asp-Asp-Ile-Val-Pro-Cys-Ser-Met-Lys(Dnp)-Arg-Arg as fluorogenic substrate at 100 uM after 30 mins by FRET assay.
Data set [8] can be described thus: Selectivity index, ratio of CC50 for human HuH7 cells expressing chimeric gene encoding firefly luciferase and neomycin phosphotransferase by MTT assay to EC50 for HCV. Details: species or system Huh-7.

A value given as a limit tells only on which side of the number the result lay.

The term EC50 denotes the concentration needed to bring the measured effect to its halfway point. A word on the CC50: it is the concentration that lowers cell viability or growth by half. The IC50 is the midpoint of a concentration-inhibition curve. As to `O=C(COc1ccc([N+](=O)[O-])cc1)N/N=C/c1ccccc1OC(=O)c1sc2ccccc2c1Cl`, the EC50 in data set [1] is 19.5 µM. For the same compound, the figures for the CC50 at 72 h in data set [2] and in data set [3] were more than 125 µM and 40 µM, respectively. The IC50 in data set [4] is 1.06 µM. Moreover, the Ratio in data set [5] is 10. In addition, the “Ratio CC50/EC50” value in data set [6] is on record as 2.1.

Regarding `COc1cc(/C=N/NC(=O)c2cc3cc([N+](=O)[O-])ccc3o2)cc([N+](=O)[O-])c1OCc1ccc([N+](=O)[O-])cc1`, the IC50 in data set [4] was determined as 8.34 µM.

With `C=CCc1cc(/N=N/C(=O)c2cc3cc([N+](=O)[O-])ccc3o2)cc(OCC)c1OCc1ccc(Cl)cc1`, the EC50 in data set [1] was more than 125 µM. Also, the CC50 at 72 h in data set [2] was more than 125 µM. Further, in data set [4], the IC50 came to 8.07 µM.

The inhibition is the share of the control response that was lost under treatment. Turning to `CCCOc1ccc(C(=O)Oc2ccc(/C=N/NC(=O)COc3ccc([N+](=O)[O-])cc3)cc2OCC)cc1`, the EC50 in data set [1] is 13 µM. In data set [2], the CC50 at 72 h was more than 125 µM. Further, the inhibition in data set [7] was found to be 38%. For the same compound, in data set [8], the “Ratio CC50/EC50” value was more than 9.6.

In the case of `CCC(C)Oc1ccc(/N=N/C(=O)c2cc3cc([N+](=O)[O-])ccc3o2)cc1Br` (centres undefined), in data set [1], the EC50 turned out to be 13.5 µM. Besides, the figures for the CC50 at 72 h in data set [2] and in data set [3] were 57 µM and 36 µM, respectively. For the same compound, the IC50 in data set [4] came out at 22.7 µM. The “Ratio CC50/EC50” value in data set [6] is 2.6.

Consider `COc1ccc(C(=O)Cc2ccc3ccccc3c2/C=N/NC(=O)COc2ccc([N+](=O)[O-])cc2)cc1`, for which the EC50 in data set [1] was found to be 8.5 µM. In addition, the CC50 at 72 h in data set [2] is more than 125 µM; in data set [3], 9 µM. Moreover, the IC50 in data set [4] amounted to 64.3 µM. Besides, in data set [6], the “Ratio CC50/EC50” value came out at 1.1.

As to `COc1cc(/C=N/NC(=O)COc2ccc([N+](=O)[O-])cc2)ccc1OC(=O)c1sc2ccccc2c1Cl`, in data set [1], the EC50 was found to be 93 µM. For the same compound, the CC50 at 72 h in data set [2] was more than 125 µM. Besides, in data set [4], the IC50 came out at 12.3 µM. Moreover, the Ratio in data set [5] was determined as 10.

In the case of `CC(Oc1ccc([N+](=O)[O-])cc1)C(=O)N/N=C/c1ccccc1OC(=O)c1sc2ccccc2c1Cl` (centres undefined), the EC50 in data set [1] was 12.5 µM. Also, the CC50 at 72 h in data set [2] is more than 125 µM; in data set [3], 19 µM. For the same compound, the half-maximal inhibitory concentration (IC50) in data set [4] worked out at 1.01 µM. Besides, the Ratio in data set [5] is 10. In addition, the “Ratio CC50/EC50” value in data set [6] is listed as 1.5.

In the case of `CCc1cc(OCc2ccc([N+](=O)[O-])cc2)c(OC)cc1/C=N/NC(=O)c1cc2cc([N+](=O)[O-])ccc2o1`, the IC50 in data set [4] came to 11.9 µM.

In the case of `COc1cc(/C=N/NC(=O)c2cc3cc([N+](=O)[O-])ccc3o2)c(C)cc1OCc1ccc([N+](=O)[O-])cc1`, the IC50 in data set [4] stood at 17.1 µM.

Take `CCOc1cc(/C=N/NC(=O)C(C)Oc2ccc([N+](=O)[O-])cc2)ccc1OC(=O)c1ccc(Cl)cc1Cl` (centres undefined): in data set [1], the EC50 turned out to be 23 µM. Also, in data set [2], the CC50 at 72 h is more than 125 µM. Further, the inhibition in data set [7] is 42.9%. In data set [8], the “Ratio CC50/EC50” value is more than 5.4.

For the compound `COc1cc(/C=N/NC(=O)C(C)Oc2ccc([N+](=O)[O-])cc2)ccc1OC(=O)c1sc2ccccc2c1Cl` (centres undefined), in data set [1], the EC50 was 121 µM. In data set [2], the CC50 at 72 h was more than 125 µM. Also, the IC50 in data set [4] stood at 4.08 µM. In addition, the Ratio in data set [5] stood at 10.

For `COc1cc(/C=N/NC(=O)c2cc3cc([N+](=O)[O-])ccc3o2)ccc1OCc1ccc([N+](=O)[O-])cc1`, the EC50 in data set [1] is 12 µM. The CC50 at 72 h was more than 125 µM in data set [2] and more than 80 µM in data set [3]. In data set [4], the IC50 came to 8.59 µM. Moreover, the “Ratio CC50/EC50” value in data set [6] is reported as more than 9.3.

Values taken from ChEMBL document CHEMBL1914390, “A new method for induced fit docking (GENIUS) and its application to virtual screening of novel HCV NS3-4A protease inhibitors” (Bioorg Med Chem, 2011).
